Laboratory results from patent US20250162990A1, “COMPOUNDS AND METHODS FOR INHIBITING CANCERS OVER-EXPRESSING REPLICATION FACTOR C 40” (RAADYSAN BIOTECH, INC., priority 2022, published 2025).

Tests used:
[1] = system: MCF10A cells (non-cancerous breast epithelial cells); test: Cell viability, ApoLive Glo Multiplex Assay (live-cell protease fluorescence); assay type: cell-based; conditions: 24 hours; for effect on the cell viability of MCF10A cells at lower drug concentrations: concentrations of up to 10 μM; for effect on the cell viability of MCF10A cells: 0.1 nM to 100 μM
Description: (§1) Non-cancerous breast epithelial cells (MCF10A) and TNBC cell line (MDA-MB-231; mesenchymal; originating from a person) were purchased from the ATCC (American Type Culture Collection, Manassas, Virginia). The effect of the 7 SMEs on cell viability and apoptosis, in MDA-MB-231 and MCF10A cell lines, respectively, was determined as follows. The MCF10A and MDA-MB-231 cells were incubated with different concentrations (100 μM, 10 μM, 1 μM, 0.1 μM, 10 nM, 1 nM, 0.1 nM, and DMSO only) of the 7 SMEs for 24 hours at 37° C. Cell viability and apoptosis was estimated using the ApoLive Glo Multiplex Assay kit 29 (Promega, Madison, WI). Live-cell protease fluorescence (cell viability) was measured at 400 Ex/505 Em and caspase3/7 activation (apoptosis) was measured by luminescence on Envision plate reader.

[2] = system: MDA-MB-231 cells (TNBC cell line); test: as above; assay type: cell-based; conditions: for EC50: Homo sapiens, MDA-MB-231, 24 hours at 37° C., read-out: EC50, inhibition of TNBC cell viability; for inhibited TNBC cell viability: MDA-MB-231, 24 hours, dose-dependent (up to 100 μM)
Description: as §1

RFC40 in HEK293 cells = biological target: T1, RFC40 in HEK293 cells (Homo sapiens, UniProt P35250); test: RFC40 protein expression by Western blot; assay type: cell-based; conditions: 2 different concentrations, 24 hr
T1 construct: endogenous in cells; host or cells: HEK293
Description: HEK293 cells were plated in 6-well plates and grown until they were 80% confluent. The cells were then treated with RDY00012, in a dose-dependent manner [100 μM, 10 μM, 1 μM, 0.1 μM, 0 μM (DMSO only)], for 24 hours at 37° C. Samples were run 9% SDS-PAGE and Western blot analysis was performed using rabbit polyclonal anti-RFC40 (1:100, Abcepta) and mouse monoclonal anti-β-Actin (1:500, Santa Cruz Tech) primary antibodies, respectively. Following incubation with anti-rabbit, and anti-mouse secondary antibodies, respectively, specific proteins were detected by chemiluminescence.

MDA-MB-231 cells = test: Apoptosis, caspase3/7 activation, ApoLive Glo Multiplex Assay; assay type: cell-based; conditions: 24 hr, caspase3/7 luminescence
Description: as §1

[3] = biological target: T2, Recombinant human RFC40 protein (Homo sapiens, UniProt P35250); test: RFC40 ATPase enzyme activity, ADP-Glo Max Assay; assay type: biochemical; conditions: RFC40 250 nM, ATP 25 μM; for inhibition at 0.0001 µM: 0.1 nM compound, after 90 min pre-incubation, read-out: time-dependent increase in the inhibition of the RFC40 enzyme activity; for inhibition of RFC40 enzyme activity after 30 min of incubation: 30 min pre-incubation at 37° C.
T2 construct: purchased Origene Technologies (Rockville, MD)
Description: FIGS. 15A-B are graphs of RFC40 ATPase activity inhibition. Human recombinant RFC40 (250 nM) was pre-incubated, individually, with different concentrations of compounds labeled RDY00209 and RDY00120 at 37° C. ATP (25 μM) was then added to the mixture and the ATPase enzyme activity of RFC40 was estimated using the ADP-Glo Max Assay. FIG. 15A presents RFC40 enzyme activity after a 30 min incubation with each compound, and FIG. 15B presents RFC40 enzyme activity after a 90 min incubation with each compound.
Method: Biochemical assays were performed to determine the effects of the 2 SMEs RDY00209 and RDY00120 on the enzymatic activity of RFC40. Recombinant human RFC40 protein was purchased from Origene Technologies (Rockville, MD). ATPase enzyme activity of RFC40 was estimated using the ADP-Glo Max Assay kit^32 (Promega, Madison, WI), as per the manufacturer's instructions. RFC40 (250 nM) was pre-incubated, individually, with different concentrations (100 μM, 0.1 μM, 0.1 nM and 0) of RDY00209 and RDY00120 for 30 min and 90 min, respectively, at 37° C. ATP (25 μM) was then added to the mixture and incubated for another 3 hours at 37° C. Luminescence was read on an Envision plate reader.

T2 sequence (P35250 whole entry): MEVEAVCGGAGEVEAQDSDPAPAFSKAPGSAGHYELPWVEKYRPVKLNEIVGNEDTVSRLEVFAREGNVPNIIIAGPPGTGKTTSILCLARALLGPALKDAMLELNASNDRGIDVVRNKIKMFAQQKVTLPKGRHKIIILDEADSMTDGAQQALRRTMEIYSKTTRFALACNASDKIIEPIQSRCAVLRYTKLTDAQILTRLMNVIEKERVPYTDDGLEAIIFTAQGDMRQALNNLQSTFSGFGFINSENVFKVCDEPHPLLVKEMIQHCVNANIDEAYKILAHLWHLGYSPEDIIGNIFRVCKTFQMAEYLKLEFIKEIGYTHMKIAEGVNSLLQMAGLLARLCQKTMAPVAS
T1 sequence (P35250 whole entry): as above

EC50 [2]	expression of RFC40 (RFC40 in HEK293 cells)	inhibition at 0.0001 µM [3]	Structure (SMILES)	effect on the cell viability of MCF10A cells at lower drug concentrations [1]	inhibited TNBC cell viability [2]	induction of apoptosis in MDA-MB-231 cells (MDA-MB-231 cells)	inhibition of RFC40 enzyme activity after 30 min of incubation [3]	effect on the cell viability of MCF10A cells [1]
7.81 µM	downregulated the expression of RFC40		O=C(O)c1ccc(OCc2ccc3nsnc3c2)cc1 [RDY00012]	did not affect	95%	did not induce apoptosis		
5.42 µM			COc1cccc(-c2ccc(=O)n(CCCC(=O)Nc3nnc(C)s3)n2)c1 [RDY00034]	did not affect	95%	did not induce apoptosis		
7.14 µM		36.5%	O=C(O)c1csc(S(=O)(=O)Nc2cccc3c2CCCC3)c1 [RDY00120]		95%	did not induce apoptosis	inhibited the enzyme activity in a dose-dependent manner	no effect
6.92 µM		22.1%	O=C(O)CNC(=O)CCn1ccc2ccc(Cl)cc21 [RDY00209]		95%	did not induce apoptosis	inhibited the enzyme activity in a dose-dependent manner	no effect
